Measurements as given in US8124343B2, “IRE-1α substrates” (MannKind Corporation, priority 2005, dated 2012).
{BHQ1} = Black Hole Quencher-1 (BHQ-1) label; {FAM} = fluorescein (FAM) label

Legend:
Format in all cases: biochemical
[1] = biological target: T1, IRE-1α (Homo sapiens, UniProt O75460); test: High-throughput screening assay of IRE-1α RNase activity; conditions: for fluorescence signal, average: 384-well plates
T1 construct: GST (N, cleaved yes); made in house; host or cells: baculovirus-infected insect cells
T1 sequence (O75460 with tags, fused parts or gaps): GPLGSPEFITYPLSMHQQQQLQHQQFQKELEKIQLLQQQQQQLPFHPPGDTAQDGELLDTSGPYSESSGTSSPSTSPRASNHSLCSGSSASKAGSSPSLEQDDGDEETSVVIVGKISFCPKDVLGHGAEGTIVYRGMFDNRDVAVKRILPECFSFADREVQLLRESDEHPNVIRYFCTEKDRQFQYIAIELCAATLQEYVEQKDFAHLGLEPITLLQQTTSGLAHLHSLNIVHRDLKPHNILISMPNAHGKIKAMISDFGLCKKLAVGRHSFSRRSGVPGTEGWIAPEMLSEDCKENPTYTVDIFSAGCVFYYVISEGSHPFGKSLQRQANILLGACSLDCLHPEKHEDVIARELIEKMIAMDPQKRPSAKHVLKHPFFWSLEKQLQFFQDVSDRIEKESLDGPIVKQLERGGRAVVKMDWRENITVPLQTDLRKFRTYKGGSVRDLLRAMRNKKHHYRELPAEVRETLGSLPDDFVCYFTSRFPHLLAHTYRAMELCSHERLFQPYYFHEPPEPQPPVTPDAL
Description: Five μl of a reaction mixture comprising 1× reaction buffer (5× reaction buffer is 100 mM Hepes pH 7.5, 250 mM KOAc, 2.5 mM MgCl2), 3 mM DTT, and 0.4% polyethylene glycol water were added to each well of 384 well plates. Twenty-five nanoliters of a 1 mM test compound solution were added to test wells. Three μl of a […] IRE-1α preparation were added to each test well and to positive control wells (final concentration 5.82 ng/well). Negative control wells contained only reaction mixture and test compound.
After spinning the plates at 1200 rpm for 30 seconds, 3 μl of a 63 nM wild-type IRE-1α substrate or 3 μl of a 63 nM mutant IRE-1α substrate diluted to 48 nM were added to each well of a control plate. The plates were again spun at 1200 rpm for 30 seconds. Final concentrations for the assay were: 63 nM wild-type IRE-1α substrate (or 48 nM mutant IRE-α substrate), 5.82 ng IRE-1α protein, and 2.5 μM test compound.
The plates were covered with lids and incubated for one hour at 30° C. The plates were then transferred to an ACQUEST™ microplate reader. Data was analyzed using data analysis software. The percent activity of IRE-1α was calculated using the following equation: […]
A Beckman Biomek FX robot was used to load all components of the reaction into 384-well plates in the following order: buffer with test compound, IRE-1α, and substrate into 384-well plates. Controls with substrate alone and substrate with IRE-1α were used to calibrate signal to noise ratio and variability between wells (first two left hand rows respectively, in FIG. 6). The two far right lanes in FIG. 6 contain the mutant 15 base dual-labeled substrate with and without IRE-1α as a quality control check for RNase contamination.

[2] = biological target: T1, IRE-1α; test: Kinetics of IRE-1α-mediated substrate cleavage; conditions: 20 nM purified IRE-1α, 63 nM substrate, 60 minute incubation, 30° C.
Description: Kinetics of IRE-1α-mediated substrate cleavage were measured in an assay as described above using purified active IRE-1α and the wild-type 15 base FAM-BHQ-1™-labeled substrate. The plate was incubated at 30° C. and read every 5 minutes.
These conditions result in a signal of 60,000 units, which is approximately 75% of the full 80,000 unit signal.

[3] = biological target: T1, IRE-1α; test: IRE-1α RNase activity assay, reaction products separated on denaturing gel
[4] = biological target: T1, IRE-1α; test: Competition assay with 15 base wild-type dual-labeled substrate as readout
Description: Increasing amounts of either unlabeled wild-type (SEQ ID NO:1) or mutant 33 base substrate (SEQ ID NO:2) were incubated in the standard reaction as described in Example 2 for 1 hour at 30° C.
X-axis, fluorescence intensity; columns of Y axis, from left to right: 1, wild-type 15 base FAM BHQ-1™ substrate, no IRE-1α, and no competitor (background signal); 2, wild-type 15 base FAM BHQ-1™ substrate, no IRE-1α (background signal) plus 50 fold molar excess of unlabeled wild-type 33 base substrate (control for possible quenching of fluorophore with excess and possible hybridizing to the longer 33 base substrate); 3, wild-type 15 base FAM BHQ-1™ substrate with IRE-1α and an equivalent amount of wild-type 33 base substrate; 4, same as 3 with 2× wild-type 33 base substrate; 5, same as 3 with 5× wild-type 33 base substrate; 6, same as 3 with 10× wild-type 33 base substrate; 7, same as 3 with 20× wild-type 33 base substrate; 8, same as 3 with 50× wild-type 33 base substrate; 9, wild-type 15 base FAM BHQ-1™ substrate no IRE-1α (background signal) plus 50 fold molar excess of unlabeled mutant 33 base substrate (control for possible quenching of fluorophore with excess and possible hybridizing to the longer 33 base substrate (essentially the same as 2); 10, wild-type 15 base FAM BHQ-1™ substrate with IRE-1α and an equivalent amount of mutant 33 base substrate; 11, same as 3 with 2×33 base mutant substrate; 12, same as 3 with 5×33 base mutant substrate; 13, same as 3 with 10×33 base mutant substrate; 14, same as 3 with 20×33 base mutant substrate; 15, same as 3 with 50×33 base mutant substrate; 16, wild-type 15 base FAM BHQ-1™ substrate with IRE-1α (positive control).

[5] = with IRE-1α added, FIG. 3 lanes 13-14
[6] = with IRE-1α, no PEG, FIG. 3 lanes 3-4
[7] = with IRE-1α, with PEG, FIG. 3 lanes 7-8

Substance | fluorescence signal, average ([1]; substrate alone (no IRE-1α)) | fluorescence signal, average ([1]; substrate and IRE-1α) | signal from cleaved FAM-BHQ1 labeled substrate (gel) [3, 5] | cleavage of substrate by IRE-1α (gel) [3, 6] | cleavage of substrate by IRE-1α (gel) [3, 7] | other results
5′-CAGUCCGCAGCACUG-3′ (5' {FAM}, 3' {BHQ1}, sugars by position and backbone not given here) [15 base wild-type substrate, 15 base wild-type substrate with 5′ FAM and 3′ BHQ-1 moieties] | 12305 | 50076 | signal |  |  | ratio of positive control over background ([1]; wild-type substrate and IRE-1α over substrate alone): 4.07; signal ([2]; 10 μl reaction volume): 60,000 units; signal as share of the full 80,000 unit signal ([2]; 10 μl): approximately 75%; signal from cleaved FAM-BHQ1 labeled substrate (gel) ([3]; IRE-1α added diluted to 1:3, FIG. 3 lane 15): signal
5′-GGGUCUGCUGAGUCCGCAGCACUCAGAAGGCCC-3′ (chemistry not given here) [33 base wild-type substrate, 33 base wild-type stem-loop RNA substrate for IRE-1α] |  |  |  | cuts | cuts | inhibitory activity (fluorescence intensity) ([4]; 50-fold excess of unlabeled competitor, 1 hour at 30° C.): greater than 50%; competition with the 15 base IRE-1α substrate, inhibition of fluorescence intensity ([4]; ten-fold molar excess of unlabeled competitor, 1 hour at 30° C.): begins to compete; cleavage of substrate by IRE-1α (gel) ([3]; IRE-1α diluted 1:3, with PEG, FIG. 3 lane 9): cuts; cleavage of substrate by IRE-1α (gel) ([3]; IRE-1α diluted 1:12, with PEG, FIG. 3 lane 10): cuts; digestion of 33 base stem-loop substrate by IRE-1α (lower molecular weight band) ([3]; recombinant purified human IRE-1α, FIG. 3C): digested
5′-GGGUCUGCUGAGUCCCCAG-CACUCAGAAGGCCC-3′ (GGGUCUGCUGAGUCCCCAGCACUCAGAAGGCCC; chemistry not given here) [33 base mutant substrate] |  |  |  | does not cut | does not cut | inhibitory activity (fluorescence intensity) ([4]; similar concentrations (ten-fold to 50-fold excess) of unlabeled competitor): no inhibitory activity
5′-CAGUCCCCAGCACUG-3′ (chemistry not fully specified) [15 base mutant substrate, 15 base mutant substrate with 5′ FAM and 3′ BHQ-1 moieties] | 10393 | 10516 | no signal |  |  | 
